According to US12630530B2, “FGFR inhibitor compound and use thereof” (HENAN MEDINNO PHARMACEUTICAL TECHNOLOGY CO., LTD., priority 2020, dated 2026):

Experiments:
Assay type in all cases: biochemical
[1] = biological target: T1, FGFR3 V555M (Homo sapiens, UniProt P22607, V555M); assay: Assay I: inhibitory activity against FGFR mutants (HTRF KinEASE-TK); conditions: Table 1; ATP working concentration 20 μM, substrate TK 1 μM
T1 construct: purchased Signalchem F06-12GG
Protocol: (§1) Assay I: Determination of Inhibitory Activity Against FGFR Mutants
(§2) 1×Kinase reaction buffer was formulated with 1×volume of 5× kinase reaction buffer and 4×volume of water; 5 mM MgCl2; and 1 mM DTT.
2.3 Screening of Compounds: • 1. Diluting a compound 4-fold in a dilution plate with DMSO, with a starting compound concentration of 2 mM (4 mM for Nentedanib). • 2. Diluting the compound 40-fold into 1× kinase reaction buffer and shaking it on a shaker for 20 minutes. • 3. […] Adding 1 μl of the compound diluted in buffer to each well, sealing the plate with a sealing membrane and centrifuging the plate at 1000 g for 30 seconds and leaving it at room temperature for 10 minutes. • 6. Formulating 2.5×TK-substrate-biotin and ATP mixture with 1× enzyme reaction buffer and adding 2 μl of K-substrate-biotin/ATP mixture to the reaction plate. • 7. Sealing the plate with a sealing membrane and centrifuging the plate at 1000 g for 30 seconds and allowing it to react at room temperature for 50 minutes. • 8. Formulating 4×Sa-XL 665 (250 nM) with HTRF assay buffer. • 9. Adding 5 μl Sa-XL 665 and 5 μl TK-Antibody-Cryptate to each well, centrifuging it at 1000 g for 30 seconds, and allowing it to react for 1 hour at room temperature. • 10. Reading fluorescence signals at 615 nm (Cryptate) and 665 nm (XL665) with Biotek. 3. Data Analysis
3.1 Calculation of the ratio for each well: the ratio was calculated as 665/615 nm.
(§3) 3.3 Calculation of IC50 and plotting of inhibition curves for the compounds.
(§4) The IC50 (half inhibition concentration) of a compound was obtained using the following non-linear fitting equation, wherein data analysis was performed using Graphpad 6.0 software.
(§5) Data were exported from Envision and analyzed manually. The ratios were converted to inhibition rates and IC50 was calculated by Prism GraphPad 6.0 from the inhibition rates. IC50 was calculated again by the ratios to verify accuracy of the results.

[2] = biological target: FGFR3 K650E (Homo sapiens, UniProt P22607, K650E); assay: as above; conditions: Table 1; ATP working concentration 50 μM, substrate TK 1 μM
Protocol: as §1, §2
(§6) 2.3 Screening of Compounds: • 1. […] Adding 1 μl of the compound diluted in buffer to each well, sealing the plate with a sealing membrane and centrifuging the plate at 1000 g for 30 seconds and leaving it at room temperature for 10 minutes. • 6. Formulating 2.5×TK-substrate-biotin and ATP mixture with 1× enzyme reaction buffer and adding 2 μl of K-substrate-biotin/ATP mixture to the reaction plate. • 7. Sealing the plate with a sealing membrane and centrifuging the plate at 1000 g for 30 seconds and allowing it to react at room temperature for 50 minutes. • 8. […] 3. Data Analysis
as §3, §4, §5

[3] = biological target: T2, FGFR2 V564F (Homo sapiens, UniProt P21802, V564F); assay: as above; conditions: Table 1; ATP working concentration 10 μM, substrate TK 1 μM
T2 construct: purchased Signalchem F05-12FG
Protocol: as §1, §2, §6, §3, §4, §5

[4] = biological target: T3, FGFR1 V561M (Homo sapiens, UniProt P11362, V561M); assay: as above; conditions: Table 1; ATP working concentration 5 μM, substrate TK 1 μM
T3 construct: purchased Signalchem F04-13G
Protocol: as §1, §2, §6, §3, §4, §5

[5] = biological target: T4, VEGFR2 (Homo sapiens, UniProt P35968); assay: Assay I: kinase inhibition (HTRF KinEASE-TK), VEGFR2; conditions: Table 1; ATP working concentration 5 μM, substrate TK 1 μM
T4 construct: purchased Carna 08-191

[6] = biological target: T5, FGFR1 (Homo sapiens, UniProt P11362); assay: Assay II: inhibitory activity against wild-type FGFR (HTRF KinEASE-TK); conditions: Table 2, ATP working concentration 50 μM, substrate TK 1 μM
T5 construct: purchased Carna 08-133
Protocol: (§7) Assay II: Determination of inhibitory activity against wild-type FGFR
as §2
(§8) 3. Formulating 2×FGFR1/FGFR2/FGFR3 with 1× of enzyme reaction buffer.
(§9) 4. Adding 2 μl FGFR1/FGFR2/FGFR3 kinase (formulated in step 3) to each well of the reaction plate.
(§10) 5. Adding 1 μl of the compound diluted in buffer to each well, sealing the plate with a sealing membrane and centrifuging the plate at 1000 g for 30 seconds and leaving it at room temperature for 10 minutes.
(§11) 6. Formulating 2.5×TK-substrate-biotin and ATP mixture with 1× enzyme reaction buffer and adding 2 μl of K-substrate-biotin/ATP mixture to the reaction plate.
(§12) 7. Sealing the plate with a sealing membrane and centrifuging the plate at 1000 g for 30 seconds and allowing it to react at room temperature for 50 minutes.
as §3, §4, §5

[7] = biological target: T6, FGFR2 (Homo sapiens, UniProt P21802); assay: as above; conditions: Table 2, ATP working concentration 50 μM, substrate TK 1 μM
T6 construct: purchased Carna 08-134
Protocol: as §7, §2, §8, §9, §10, §11, §12, §3, §4, §5

[8] = biological target: T7, FGFR3 (Homo sapiens, UniProt P22607); assay: as above; conditions: Table 2, ATP working concentration 50 μM, substrate TK 1 μM
T7 construct: purchased Carna 08-135
Protocol: as §7, §2, §8, §9, §10, §11, §12, §3, §4, §5

T1 sequence (P22607 23-806 V555M): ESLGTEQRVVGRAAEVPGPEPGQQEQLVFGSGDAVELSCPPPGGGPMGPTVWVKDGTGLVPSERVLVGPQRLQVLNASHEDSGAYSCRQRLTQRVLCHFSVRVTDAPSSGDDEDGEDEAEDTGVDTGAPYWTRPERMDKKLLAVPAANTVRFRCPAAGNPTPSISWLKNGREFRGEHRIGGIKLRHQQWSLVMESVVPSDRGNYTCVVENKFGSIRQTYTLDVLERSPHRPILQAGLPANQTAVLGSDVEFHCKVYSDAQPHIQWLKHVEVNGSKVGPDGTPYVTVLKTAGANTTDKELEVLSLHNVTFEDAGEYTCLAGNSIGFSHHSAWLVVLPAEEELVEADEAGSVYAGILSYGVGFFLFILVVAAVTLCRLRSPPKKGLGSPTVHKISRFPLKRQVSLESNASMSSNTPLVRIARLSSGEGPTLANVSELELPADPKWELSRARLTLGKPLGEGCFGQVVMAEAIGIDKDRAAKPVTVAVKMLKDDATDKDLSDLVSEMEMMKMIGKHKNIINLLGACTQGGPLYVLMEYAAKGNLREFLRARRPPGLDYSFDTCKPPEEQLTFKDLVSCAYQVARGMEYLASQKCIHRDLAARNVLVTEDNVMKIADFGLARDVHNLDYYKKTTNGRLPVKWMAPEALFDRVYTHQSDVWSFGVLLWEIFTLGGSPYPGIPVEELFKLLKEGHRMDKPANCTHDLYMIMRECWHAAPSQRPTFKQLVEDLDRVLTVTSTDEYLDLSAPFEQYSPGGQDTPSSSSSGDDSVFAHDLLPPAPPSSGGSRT
T6 sequence (P21802 22-821): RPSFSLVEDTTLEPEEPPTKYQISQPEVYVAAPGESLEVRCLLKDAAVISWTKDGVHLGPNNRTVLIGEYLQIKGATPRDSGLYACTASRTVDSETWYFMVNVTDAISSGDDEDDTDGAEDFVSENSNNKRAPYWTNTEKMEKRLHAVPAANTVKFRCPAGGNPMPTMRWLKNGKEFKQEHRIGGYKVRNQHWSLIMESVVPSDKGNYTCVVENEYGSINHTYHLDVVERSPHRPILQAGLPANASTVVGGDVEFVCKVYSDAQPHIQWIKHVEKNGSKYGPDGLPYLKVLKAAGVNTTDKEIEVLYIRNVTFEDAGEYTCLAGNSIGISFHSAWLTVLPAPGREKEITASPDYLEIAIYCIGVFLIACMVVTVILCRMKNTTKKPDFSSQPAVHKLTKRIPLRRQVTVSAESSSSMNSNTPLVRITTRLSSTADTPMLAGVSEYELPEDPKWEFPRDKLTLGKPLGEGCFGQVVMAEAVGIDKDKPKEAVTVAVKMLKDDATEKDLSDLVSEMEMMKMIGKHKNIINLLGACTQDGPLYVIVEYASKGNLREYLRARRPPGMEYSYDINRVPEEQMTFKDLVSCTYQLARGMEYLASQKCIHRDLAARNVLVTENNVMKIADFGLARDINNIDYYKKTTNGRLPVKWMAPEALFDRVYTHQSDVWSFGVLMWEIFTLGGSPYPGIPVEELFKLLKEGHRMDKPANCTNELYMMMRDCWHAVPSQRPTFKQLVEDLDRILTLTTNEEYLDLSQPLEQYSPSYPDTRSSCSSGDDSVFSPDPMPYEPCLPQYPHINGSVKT
T7 sequence (P22607 23-806): as the sequence (P22607 23-806 V555M) above, with M533V counted along it
T3 sequence (P11362 22-822 V561M): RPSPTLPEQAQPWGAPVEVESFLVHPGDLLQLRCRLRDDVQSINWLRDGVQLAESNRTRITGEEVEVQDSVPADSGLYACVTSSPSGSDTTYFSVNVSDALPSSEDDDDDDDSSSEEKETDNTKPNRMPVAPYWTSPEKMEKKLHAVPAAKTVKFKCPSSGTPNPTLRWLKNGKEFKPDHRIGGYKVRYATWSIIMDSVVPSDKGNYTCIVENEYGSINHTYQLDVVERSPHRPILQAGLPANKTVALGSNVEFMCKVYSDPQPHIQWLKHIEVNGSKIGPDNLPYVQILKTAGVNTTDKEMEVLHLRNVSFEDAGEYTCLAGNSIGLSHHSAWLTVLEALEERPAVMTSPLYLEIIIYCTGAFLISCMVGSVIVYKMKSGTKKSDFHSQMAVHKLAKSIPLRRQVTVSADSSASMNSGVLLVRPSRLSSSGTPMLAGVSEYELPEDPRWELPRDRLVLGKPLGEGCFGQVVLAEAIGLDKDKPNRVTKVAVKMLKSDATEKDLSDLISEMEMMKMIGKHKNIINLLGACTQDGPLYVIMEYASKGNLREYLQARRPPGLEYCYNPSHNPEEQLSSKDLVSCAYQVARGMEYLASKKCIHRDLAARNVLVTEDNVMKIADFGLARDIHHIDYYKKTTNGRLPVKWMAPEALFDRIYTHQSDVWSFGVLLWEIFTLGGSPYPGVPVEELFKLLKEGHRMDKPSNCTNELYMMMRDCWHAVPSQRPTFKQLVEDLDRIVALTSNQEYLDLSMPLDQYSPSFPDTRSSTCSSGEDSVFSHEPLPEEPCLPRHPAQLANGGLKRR
T4 sequence (P35968 20-1356): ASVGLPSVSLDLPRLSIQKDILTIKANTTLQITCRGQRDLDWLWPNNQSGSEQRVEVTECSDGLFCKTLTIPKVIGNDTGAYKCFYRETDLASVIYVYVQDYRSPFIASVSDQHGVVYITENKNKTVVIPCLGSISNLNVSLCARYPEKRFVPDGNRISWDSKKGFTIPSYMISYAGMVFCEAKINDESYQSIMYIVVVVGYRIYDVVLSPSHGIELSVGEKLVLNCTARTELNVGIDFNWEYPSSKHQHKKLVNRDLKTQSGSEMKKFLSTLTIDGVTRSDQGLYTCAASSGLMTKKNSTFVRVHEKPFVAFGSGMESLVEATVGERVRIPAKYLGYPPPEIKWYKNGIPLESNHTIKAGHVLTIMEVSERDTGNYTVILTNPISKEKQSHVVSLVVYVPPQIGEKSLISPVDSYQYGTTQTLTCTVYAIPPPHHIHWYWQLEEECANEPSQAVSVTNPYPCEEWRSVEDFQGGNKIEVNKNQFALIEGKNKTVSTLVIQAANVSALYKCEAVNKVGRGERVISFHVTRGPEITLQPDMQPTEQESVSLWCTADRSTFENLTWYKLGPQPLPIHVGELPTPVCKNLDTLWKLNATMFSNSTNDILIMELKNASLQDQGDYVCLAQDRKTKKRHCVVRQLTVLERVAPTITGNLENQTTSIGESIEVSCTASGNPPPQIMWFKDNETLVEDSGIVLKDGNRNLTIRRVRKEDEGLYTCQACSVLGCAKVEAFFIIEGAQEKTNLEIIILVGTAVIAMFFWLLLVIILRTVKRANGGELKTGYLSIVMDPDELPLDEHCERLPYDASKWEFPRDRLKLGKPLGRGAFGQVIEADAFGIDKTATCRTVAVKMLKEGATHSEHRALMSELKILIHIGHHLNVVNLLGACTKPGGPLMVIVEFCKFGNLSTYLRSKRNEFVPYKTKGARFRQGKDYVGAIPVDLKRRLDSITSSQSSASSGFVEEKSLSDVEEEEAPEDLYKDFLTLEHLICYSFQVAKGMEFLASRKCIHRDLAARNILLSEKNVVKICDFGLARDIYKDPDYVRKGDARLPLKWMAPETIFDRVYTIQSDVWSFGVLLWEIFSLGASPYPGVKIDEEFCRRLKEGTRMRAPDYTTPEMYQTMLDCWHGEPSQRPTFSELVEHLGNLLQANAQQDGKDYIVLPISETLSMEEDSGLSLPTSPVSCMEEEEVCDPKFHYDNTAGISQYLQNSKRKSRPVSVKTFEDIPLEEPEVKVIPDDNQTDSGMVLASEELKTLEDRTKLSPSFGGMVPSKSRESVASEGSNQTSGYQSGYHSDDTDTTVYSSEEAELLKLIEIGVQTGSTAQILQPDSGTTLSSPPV
Chain of FGFR3 K650E (P22607 23-806 K650E): as the sequence (P22607 23-806 V555M) above, with M533V, K628E counted along it
T5 sequence (P11362 22-822): as the sequence (P11362 22-822 V561M) above, with M540V counted along it
T2 sequence (P21802 22-821 V564F): as the sequence (P21802 22-821) above, with V543F counted along it

Compound | IC50 [1] [nM] | IC50 [2] [nM] | IC50 [3] [nM] | IC50 [4] [nM] | IC50 [5] [nM] | IC50 [6] [nM] | IC50 [7] [nM] | IC50 [8] [nM]
CC(Oc1ccc2[nH]nc(C(=O)Nc3ccc(N4C[C@@H](C)N[C@@H](C)C4)cc3)c2c1)c1c(Cl)cncc1Cl (stereo partly drawn) [Compound 1, 5-(1-(3,5-dichloropyridin-4-yl)ethoxy)-N-(4-((3S,5R)-3,5-dimethylpiperazin-1-yl)phenyl)-1H-indazole-3-carboxamide] | 8.6 | 26.8 | 2.3 | 6.3 |  |  |  | 
CC(Oc1ccc2[nH]nc(C(=O)Nc3cnn(CCO)c3)c2c1)c1c(Cl)cncc1Cl (centres unmarked) [Compound 2, 5-(1-(3,5-dichloropyridin-4-yl)ethoxy)-N-(1-(2-hydroxyethyl)-1H-pyrazol-4-yl)-1H-indazole-3-carboxamide] | 2.2 | 30 | 2 | 7 | 176 |  |  | 
CC(Oc1ccc2[nH]nc(C(=O)Nc3cnn(C(C)CC#N)c3)c2c1)c1c(Cl)cncc1Cl (centres unmarked) [Compound 5, N-(1-(1-cyanopropan-2-yl)-1H-pyrazol-4-yl)-5-(1-(3,5-dichloropyridin-4-yl)ethoxy)-1H-indazole-3-carboxamide] | 4.6 | 33.4 | 2.4 | 7.2 |  |  |  | 
C[C@@H]1CN(c2ccc(NC(=O)c3n[nH]c4ccc(O[C@H](C)c5c(Cl)cncc5Cl)cc34)cc2)C[C@H](C)N1 [Compound 6, 5-((R)-1-(3,5-dichloropyridin-4-yl)ethoxy)-N-(4-((3S,5R)-3,5-dimethylpiperazin-1-yl)phenyl)-1H-indazole-3-carboxamide] | 0.94 |  | 0.66 | 2.3 | 84.1 | 27.7 | 21.3 | 52.2
C[C@@H](Oc1ccc2[nH]nc(C(=O)Nc3cnn(CCO)c3)c2c1)c1c(Cl)cncc1Cl [Compound 7, (R)-5-(1-(3,5-dichloropyridin-4-yl)ethoxy)-N-(1-(2-hydroxyethyl)-1H-pyrazol-4-yl)-1H-indazole-3-carboxamide] | 0.73 |  | 0.42 | 5.2 | 97.6 | 27.5 | 7.6 | 42.6
CC(Oc1ccc2[nH]nc(C(=O)Nc3ccc(N4C[C@@H](C)N[C@@H](C)C4)nc3)c2c1)c1c(Cl)cncc1Cl (stereo partly drawn) [Compound 8, 5-(1-(3,5-dichloropyridin-4-yl)ethoxy)-N-(6-((3S, 5R)-3,5-dimethylpiperazin-1-yl)pyridin-3-yl)-1H-indazole-3-carboxamide] | 2.6 |  | 4 | 2.3 | 224 | 69.7 | 58.6 | 106
CC(Oc1ccc2[nH]nc(C(=O)Nc3ccc(N4CCN(C)CC4)cc3)c2c1)c1c(Cl)cncc1Cl (centres unmarked) [Compound 9, 5-(1-(3,5-dichloropyridin-4-yl)ethoxy)-N-(4-(4-methylpiperazin-1-yl)phenyl)-1H-indazole-3-carboxamide] | 1.1 |  | 0.94 | 1 | 152 | 61 | 48.7 | 102
CCN1CCN(c2ccc(NC(=O)c3n[nH]c4ccc(OC(C)c5c(Cl)cncc5Cl)cc34)cc2)CC1 (centres unmarked) [Compound 10, 5-(1-(3,5-dichloropyridin-4-yl)ethoxy)-N-(4-(4-ethylpiperazin-1-yl)phenyl)-1H-indazole-3-carboxamide] | 2 |  | 3.2 | 1.7 | 1390 | 64.5 | 48 | 98.8
CC(Oc1ccc2[nH]nc(C(=O)Nc3cnn(C4CC(O)C4)c3)c2c1)c1c(Cl)cncc1Cl (centres unmarked) [Compound 12, 5-(1-(3,5-dichloropyridin-4-yl)ethoxy)-N-(1-(3-hydroxycyclobutyl)-1H-pyrazol-4-yl)-1H-indazole-3-carboxamide] | 0.74 |  | 0.48 | 1.9 | 208 | 45.1 | 24.5 | 42.9
CC(Oc1ccc2[nH]nc(C(=O)Nc3cnn(C4CCN(C)CC4)c3)c2c1)c1c(Cl)cncc1Cl (centres unmarked) [Compound 14, 5-(1-(3,5-dichloropyridin-4-yl)ethoxy)-N-(1-(1-methylpiperidin-4-yl)-1H-pyrazol-4-yl)-1H-indazole-3-carboxamide] | 0.27 |  | 0.14 | 0.47 | 24.7 | 11.1 | 9.5 | 19.2
CC(Oc1ccc2[nH]nc(C(=O)Nc3ccc(N4C[C@@H](C)N[C@@H](C)C4)c(F)c3)c2c1)c1c(Cl)cncc1Cl (stereo partly drawn) [Compound 17, 5-(1-(3,5-dichloropyridin-4-yl)ethoxy)-N-(4-((3S, 5R)-3,5-dimethylpiperazin-1-yl)-3-fluorophenyl)-1H-indazole-3-carboxamide] | 6.9 |  | 2.3 | 8.6 | 173 |  |  | 
CCN1CCC(c2ccc(NC(=O)c3n[nH]c4ccc(OC(C)c5c(Cl)cncc5Cl)cc34)cc2)CC1 (centres unmarked) [Compound 18, 5-(1-(3,5-dichloropyridin-4-yl)ethoxy)-N-(4-(1-ethylpiperidin-4-yl)phenyl)-1H-indazole-3-carboxamide] | 1.1 |  | 0.63 | 1.6 | 141 |  |  | 
CC(Oc1ccc2[nH]nc(C(=O)Nc3cnn(CCN4CCOCC4)c3)c2c1)c1c(Cl)cncc1Cl (centres unmarked) [Compound 19, 5-(1-(3,5-dichloropyridin-4-yl)ethoxy)-N-(1-(2-morpholinoethyl)-1H-pyrazol-4-yl)-1H-indazole-3-carboxamide] | 0.27 |  | 0.24 | 0.35 | 63.4 |  |  | 
CCn1cc(NC(=O)c2n[nH]c3ccc(OC(C)c4c(Cl)cncc4Cl)cc23)cn1 (centres unmarked) [Compound 20, 5-(1-(3,5-dichloropyridin-4-yl)ethoxy)-N-(1-ethyl-1H-pyrazol-4-yl)-1H-indazole-3-carboxamide] | 0.88 |  | 0.82 | 9.1 | 327 |  |  | 
CC(Oc1ccc2[nH]nc(C(=O)Nc3cnn(C4CN(C)C4)c3)c2c1)c1c(Cl)cncc1Cl (centres unmarked) [Compound 21, 5-(1-(3,5-dichloropyridin-4-yl)ethoxy)-N-(1-(1-methylazetidin-3-yl)-1H-pyrazol-4-yl)-1H-indazole-3-carboxamide] | 0.15 |  | 0.09 | 0.27 | 39.4 |  |  | 
CC(Oc1ccc2[nH]nc(C(=O)Nc3cnn(CC4CCN(C)CC4)c3)c2c1)c1c(Cl)cncc1Cl (centres unmarked) [Compound 22] | 0.79 |  | 0.6 | 0.91 | 179 |  |  | 
